Earlier results as cited in patent US20220331268A1, “TREATMENT OF SKIN DISORDERS WITH TOPICAL COMBINATION COMPOSITIONS COMPRISING TAPINAROF AND AN ADDITIONAL AHR ACTIVATOR” (Sol-Gel Technologies Ltd., priority 2019, published 2022).

What was measured:
[1] = 1% tapinarof arm compared with 0.5% arm or vehicle
[2] = across all groups treated
[3] = system: interleukin-6 and interleukin-17A; conditions: mouse models and in vitro human skin studies
[4] = psoriasis treatment, single drug; placebo 20.2%

| SMILES | efficacy [1] | onset of action [1] | contact dermatitis (side-effect, among most common) [2] | folliculitis (side-effect) [2] | effect on proinflammatory mediators including interleukin-6 and interleukin-17A [3] | skin barrier function [3] | adverse effects [4] |
| --- | --- | --- | --- | --- | --- | --- | --- |
| CC(C)c1c(O)cc(/C=C/c2ccccc2)cc1O [Tapinarof, 3,5-dihydroxy-4-isopropyl-trans-stilbene] | higher efficacy | quicker onset of action | > 5% | 9% | inhibit | enhance skin barrier function | 44.5% |
| C=C1/C(=C\C=C2/CCC[C@]3(C)[C@@H]([C@H](C)/C=C/[C@@H](O)C4CC4)CC[C@@H]23)C[C@@H](O)C[C@@H]1O [calcipotriene] |  |  |  |  |  |  | 19.5% |
